Converted amounts (≈) assume the structure as drawn. “And” between values parts separate entries of the source, which are not always exact repeats. Equal entries are not always repeated.
What was measured:
[1] = Protease-catalyzed perhydrolysis of acetamide at pH 6.5 (Example 9); format: biochemical; details: pH 6.5, 500 mM H2O2, 1 mg protease
Experimental: (§1) Into a 4-mL glass vial with stir bar was added 1 mg protease (Table 6) in 0.050 mL of 50 mM potassium phosphate buffer (pH 6.5), 0.900 mL of an aqueous mixture containing either a) acetamide (278 mM) in 50 mM potassium phosphate buffer (pH 6.5) or b) diacetamide (278 mM) in 50 mM potassium phosphate buffer (pH 6.5), and 0.052 mL 30% hydrogen peroxide (500 mM final concentration). […] A portion of the filtered reaction samples was diluted 1:10 with dd water and analyzed for hydrogen peroxide, and the remaining portion of the sample was directly analyzed for peracid using the HPLC assay method (Table 10).

[2] = Protease-catalyzed perhydrolysis of diacetamide at pH 4.0 (Example 6); format: biochemical; details: pH 4.0, 500 mM H2O2, 1 mg protease
Experimental: as §1, with “sodium acetate/acetic acid” for “potassium phosphate”, “4.0),” for “6.5),”, “4.0)” for “6.5)”, “7).” for “10).”

[3] = Protease-catalyzed perhydrolysis of diacetamide at pH 6.5 (Example 9); format: biochemical; details: pH 6.5, 500 mM H2O2, 1 mg protease
Experimental: as §1

[4] = Protease-catalyzed perhydrolysis of triacetin at pH 6.5 (Example 8); format: biochemical; details: pH 6.5, 500 mM H2O2, 1 mg protease
Experimental: The analytical procedure described by U. Karst et al. (Anal. Chem., 69 (17):3623-3627 (1997)) was employed, as described herein, for analysis of product mixtures containing peracid and hydrogen peroxide. Briefly, the concentration of peracetic acid (PAA) in analyzed samples ranged from 0.025 mM-10 mM, and the concentration of H2O2 ranged from 0.075 mM-3 mM. Reaction mixtures containing peracid and/or hydrogen peroxide were, if necessary prior to analysis, diluted to produce a concentration of peracid or peroxide in these ranges. Into a 4-mL vial was placed 0.100 mL of 20 mM methyl p-tolyl sulfide (MTS) in acetonitrile, 0.300 mL of distilled and deionized water (dd) and 0.100 mL of sample solution (undiluted or diluted with dd water by a factor of up to 1:25 for analysis of peracid), or 0.100 mL of 20 mM MTS in acetonitrile and 0.390 mL of dd water were added to 0.010 mL of a 1:10 dilution of sample solution (for analysis of hydrogen peroxide). After a reaction time of 10 minutes (in the dark, with no stirring), 0.400 mL CH3CN and 0.100 mL of 40-mM triphenylphosphine (TPP) in CH3CN were added to start the second derivatization reaction for detection of peroxide. The solution was left standing in the dark for 30 min to complete the assay reaction. At the end of 30 minutes, 0.100 mL of 10 mM N,N-diethyl-m-toluamide (DEET, HPLC external standard) was added and the resulting solution analyzed by HPLC: Supelco Discovery C8 10-cm column with pre-column, 10-μL injection, UV detection at 225 nm, solvent A: acetonitrile, solvent B: deionized water, 1 mL/min gradient as follows: […]
Into a 4-mL glass vial with stir bar was added 1 mg protease (Table 6) in 0.050 mL of 50 mM sodium phosphate buffer (pH 6.5), 0.900 mL of an aqueous mixture containing triacetin (278 mM) in 50 mM phosphate buffer (pH 6.5), and 0.052 mL 30% hydrogen peroxide (500 mM final concentration). After stirring for 5 or 30 minutes at 22° C., a 0.250 mL sample was filtered using a 30,000 NMWL filter (Millipore UltraFree-MC) centrifuged for 2 minute at 12,000 RPM. A portion of the filtered reaction samples was diluted 1:10 with dd water and analyzed for hydrogen peroxide, and the remaining portion of the sample was directly analyzed for peracid using the HPLC assay method (Table 9).

[5] = Protease-catalyzed perhydrolysis of triacetin at pH 4.0 (Example 7); format: biochemical; details: pH 4.0, 500 mM H2O2, 1 mg protease
Experimental: as §1, with “sodium acetate/acetic acid” for “potassium phosphate”, “4.0),” for “6.5),”, “triacetin” for “either a) acetamide”, “4.0),” for “6.5) or b) diacetamide (278 mM) in 50 mM potassium phosphate buffer (pH 6.5),”, “8).” for “10).”

[6] = Protease-catalyzed perhydrolysis of acetamide at pH 4.0 (Example 6); format: biochemical; details: pH 4.0, 500 mM H2O2, 1 mg protease
Experimental: as §1, with “sodium acetate/acetic acid” for “potassium phosphate”, “4.0),” for “6.5),”, “4.0)” for “6.5)”, “7).” for “10).”

E. coli ATCC 11229 = assay: Determination of Minimum Biocidal Concentration (MBC), XTT reduction inhibition (Example 21); format: cell-based; details: for replicate OD (450 nm): replicates 1-8
From the text: The method described by J. Gabrielson, et al. (J. Microbiol. Methods 50: 63-73 (2002)) was employed for determination of the Minimum Biocidal Concentration (MBC) of peracids, or for determination of the MBC of hydrogen peroxide and enzyme substrates. The assay method is based on XTT reduction inhibition, where XTT ((2,3-bis[2-methoxy-4-nitro-5-sulfophenyl]-5-[(phenylamino)carbonyl]-2H-tetrazolium, inner salt, monosodium salt) is a redox dye that indicates microbial respiratory activity by a change in optical density (OD) measured at 490 nm or 450 nm. However, there are a variety of other methods available for testing the activity of disinfectants and antiseptics including, but not limited to viable plate counts, direct microscopic counts, dry weight, turbidity measurements, absorbance, and bioluminescence (see, for example Brock, Semour S., Disinfection, Sterilization, and Preservation, 5th edition, Lippincott Williams & Wilkins, Philadelphia, Pa., USA; 2001).
The filtered enzyme-generated product mixture was diluted 1:5 with sterile water, and the resulting solution was further diluted with sterile water in four 1:1 serial dilutions to obtain the concentrations of PAA and hydrogen peroxide listed in Table 22.
The 1:5 dilution and four serial dilutions were evaluated for biocidal activity by mixing 0.100 mL of the PAA-containing solution with 0.100 mL of an inoculum containing 2.7×10^6 CFU/mL of E. coli ATCC 11229 (American Type Culture Collection, Manassas, Va.) in Millers LB broth diluted with Butterfield Buffer; eight replicates of each mixture were contained in individual wells of a sterile 96-well microtiter plate. After the resulting cell suspensions were allowed to stand for 10 minutes at room temperature, they were tested for viability using the growth indicator XTT (2,3-bis[2-methoxy-4-nitro-5-sulfophenyl]-5-[(phenylamino)carbonyl]-2H-tetrazolium, inner salt, monosodium salt; CAS RN 111072-31-2) according to the method of Gabrielson et al. (J. Microbiol. Methods, 50:63-73 (2002)).
Separately, the cell inoculum was treated with sterile solutions of triacetin (Table 24) or hydrogen peroxide in 50 mM phosphate buffer (pH 6.5) (Table 25) at the concentrations present in each of the biocide dilutions in Table 23 to determine the MBC for these components of the biocide solution.

Pepsin
acetamide (250 mM) peracetic acid (ppm), 5 min [1]: 81 ppm
acetamide (250 mM) peracetic acid (ppm), 30 min [1]: 67 ppm
diacetamide (250 mM) peracetic acid (ppm), 5 min [2]: 97 ppm
diacetamide (250 mM) peracetic acid (ppm), 30 min [2]: 120 ppm
diacetamide (250 mM) peracetic acid (ppm), 5 min [3]: 259 ppm
diacetamide (250 mM) peracetic acid (ppm), 30 min [3]: 198 ppm
triacetin (250 mM) peracetic acid (ppm), 5 min [4]: 111 ppm
triacetin (250 mM) peracetic acid (ppm), 30 min [4]: 163 ppm
triacetin (250 mM) peracetic acid (ppm), 5 min [5]: 65 ppm
triacetin (250 mM) peracetic acid (ppm), 30 min [5]: 44 ppm
acetamide (250 mM) peracetic acid (ppm), 5 min [6]: 45 ppm
acetamide (250 mM) peracetic acid (ppm), 30 min [6]: 65 ppm

Bromelain
acetamide (250 mM) peracetic acid (ppm), 5 min [1]: 108 ppm
acetamide (250 mM) peracetic acid (ppm), 30 min [1]: 112 ppm
diacetamide (250 mM) peracetic acid (ppm), 5 min [2]: 92 ppm
diacetamide (250 mM) peracetic acid (ppm), 30 min [2]: 130 ppm
diacetamide (250 mM) peracetic acid (ppm), 5 min [3]: 311 ppm
diacetamide (250 mM) peracetic acid (ppm), 30 min [3]: 202 ppm
triacetin (250 mM) peracetic acid (ppm), 5 min [4]: 161 ppm
triacetin (250 mM) peracetic acid (ppm), 30 min [4]: 170 ppm
triacetin (250 mM) peracetic acid (ppm), 5 min [5]: 83 ppm
triacetin (250 mM) peracetic acid (ppm), 30 min [5]: 59 ppm
acetamide (250 mM) peracetic acid (ppm), 5 min [6]: 57 ppm
acetamide (250 mM) peracetic acid (ppm), 30 min [6]: 63 ppm

CC(=O)OO [peracetic acid]
Minimum Biocidal Concentration (MBC) (E. coli ATCC 11229; E. coli ATCC 11229, 1.35×10^6 CFU/mL, 10 minutes at room temperature, XTT, six-log kill, listed as PAA): > 2.4 ppm
MBC (E. coli ATCC 11229; Escherichia coli, ATCC11229, 10 min, read-out: Minimum Biocidal Concentration (MBC), E. coli ATCC 11229, 1.35×10^6 CFU/mL, 10 minutes at room temperature, XTT, six-log kill): 2.4 µg/mL (≈ 31.6 µM)
blank-corrected mean OD (E. coli ATCC 11229; PAA 1.2 ppm, H2O2 40.2 ppm): 0.203
mean replicate OD (450 nm) (E. coli ATCC 11229; PAA 1.2 ppm, H2O2 40.2 ppm): 0.617
replicate OD (450 nm) (E. coli ATCC 11229; PAA 1.2 ppm, H2O2 40.2 ppm): 0.674 and 0.635 and 0.658 and 0.625 and 0.639 and 0.520 and 0.496 and 0.692
blank-corrected mean OD (E. coli ATCC 11229; PAA 2.4 ppm, H2O2 80.4 ppm): 0.007
mean replicate OD (450 nm) (E. coli ATCC 11229; PAA 2.4 ppm, H2O2 80.4 ppm): 0.421
replicate OD (450 nm) (E. coli ATCC 11229; PAA 2.4 ppm, H2O2 80.4 ppm): 0.400 and 0.397 and 0.403 and 0.401 and 0.409 and 0.407 and 0.543 and 0.406
blank-corrected mean OD (E. coli ATCC 11229; PAA 4.8 ppm, H2O2 160.8 ppm): −0.005
mean replicate OD (450 nm) (E. coli ATCC 11229; PAA 4.8 ppm, H2O2 160.8 ppm): 0.409
replicate OD (450 nm) (E. coli ATCC 11229; PAA 4.8 ppm, H2O2 160.8 ppm): 0.393 and 0.388 and 0.399 and 0.398 and 0.404 and 0.401 and 0.471 and 0.418
blank-corrected mean OD (E. coli ATCC 11229; PAA 9.6 ppm, H2O2 321.6 ppm): −0.009
mean replicate OD (450 nm) (E. coli ATCC 11229; PAA 9.6 ppm, H2O2 321.6 ppm): 0.405
replicate OD (450 nm) (E. coli ATCC 11229; PAA 9.6 ppm, H2O2 321.6 ppm): 0.398 and 0.392 and 0.395 and 0.404 and 0.409 and 0.394 and 0.422 and 0.427
blank-corrected mean OD (E. coli ATCC 11229; PAA 19.15 ppm, H2O2 643.1 ppm): −0.029
mean replicate OD (450 nm) (E. coli ATCC 11229; PAA 19.15 ppm, H2O2 643.1 ppm): 0.388
replicate OD (450 nm) (E. coli ATCC 11229; PAA 19.15 ppm, H2O2 643.1 ppm): 0.383 and 0.379 and 0.387 and 0.381 and 0.382 (2×) and 0.403 (2×)

— patent publication US8063008B2, “Enzymatic production of peracids using perhydrolytic enzymes” (E. I. du Pont de Nemours and Company, priority 2005, dated 2011)
